{
  "source": "BindingDB's records for doi:10.7270/Q24M92ZV",
  "about": "(Nmmlsc, 2009)",
  "molecular_target": "Ras-related C3 botulinum toxin substrate 1 (Mus musculus, UniProt P63001)",
  "assay": "activated mutant Rac1 GTP binding inhibitors, SAR follow-up, biochemical, additional analogs, multiplex bead flow cytometry (AID 2039)",
  "data": [
    {"smiles": "O=C1N=c2ccc(Br)cc2=C1c1[nH]c2ccccc2c1NO", "note": "[5-bromanyl-3-[3-(oxidanylamino)-1H-indol-2-yl]indol-2-one]", "values": [
      {"measurement": "EC50", "value": 32.7, "unit": "µM"}
    ]},
    {"smiles": "O=C1Nc2ccccc2/C1=C1/Nc2ccccc2C1=O", "note": "[2-[(3Z)-2-oxo-2,3-dihydro-1H-indol-3-ylidene]-2,3-dihydro-1H-indol-3-one]", "values": [
      {"measurement": "EC50", "value": 30, "unit": "µM"}
    ]},
    {"smiles": "O=C1N=c2c(Cl)cccc2=C1c1[nH]c2ccccc2c1NO", "note": "[7-chloro-3-[3-(hydroxyamino)-1H-indol-2-yl]-2-indolone]", "values": [
      {"measurement": "EC50", "value": 30, "unit": "µM"}
    ]},
    {"smiles": "O=C1N=c2c(F)cccc2=C1c1[nH]c2ccccc2c1NO", "note": "[7-fluoro-3-[3-(hydroxyamino)-1H-indol-2-yl]-2-indolone]", "values": [
      {"measurement": "EC50", "value": 31.6, "unit": "µM"}
    ]},
    {"smiles": "O=C1Nc2c(Br)cccc2C1=C1Nc2ccccc2C1=O", "values": [
      {"measurement": "EC50", "value": 27.6, "unit": "µM"}
    ]},
    {"smiles": "O=C1NC(=S)N/C1=C1\\C(=O)Nc2ccccc21", "note": "[(3Z)-3-(5-oxo-2-sulfanylideneimidazolidin-4-ylidene)-1H-indol-2-one]", "values": [
      {"measurement": "EC50", "value": 7, "unit": "µM"}
    ]},
    {"smiles": "O=C1N=c2c(Br)cccc2=C1c1[nH]c2ccccc2c1NO", "note": "[7-bromanyl-3-[3-(oxidanylamino)-1H-indol-2-yl]indol-2-one]", "values": [
      {"measurement": "EC50", "value": 30, "unit": "µM"}
    ]},
    {"smiles": "O=C1Nc2c(Cl)cccc2C1=C1Nc2ccccc2C1=O", "values": [
      {"measurement": "EC50", "value": 30, "unit": "µM"}
    ]},
    {"smiles": "O=C1Nc2c(F)cccc2C1=C1Nc2ccccc2C1=O", "values": [
      {"measurement": "EC50", "value": 30, "unit": "µM"}
    ]},
    {"smiles": "O=C1Nc2ccc(Br)cc2C1=C1Nc2ccccc2C1=O", "values": [
      {"measurement": "EC50", "value": 12.2, "unit": "µM"}
    ]},
    {"smiles": "O=C1NC(=O)/C(=C2/C(=O)Nc3ccccc32)N1", "values": [
      {"measurement": "EC50", "value": 11.6, "unit": "µM"}
    ]},
    {"smiles": "O=C1N=c2ccccc2=C1c1[nH]c2ccccc2c1NO", "note": "[3-[3-(hydroxyamino)-1H-indol-2-yl]-2-indolone]", "values": [
      {"measurement": "EC50", "value": 30, "unit": "µM"}
    ]}
  ]
}
